Patent publication US7776558B2, “Human G protein-coupled receptor and modulators thereof for the treatment of cell death-related disorders” (Arena Pharmaceuticals, Inc., priority 2003, dated 2010)
“Also recorded” adds a separate entry of the source. Where no end group is shown, it is not given here.

Columns and labels:
Type in all cases: cell-based
[1] = test system: primary mouse cortical neurons; test: 22C11 (anti-APP antibody)-induced cell death of primary mouse cortical neurons; details: added 1 h prior to mAb 22C11; overnight (~18 h); LDH assay; FIG. 11B
Excerpt: 22C11 is a monoclonal antibody (mAb) which binds to the extracellular domain of the human, rat or mouse β-amyloid precursor protein (APP) (Boehringer Mannheim; Indianapolis, Ind.).
The assay was set up essentially as described by Rohn et al. [Neurochem (2000) 74:2331-2342]. Briefly, the primary cultures of mouse cortical neurons were established from E17 embryos. The gestational pups were humanely decapitated, and the brain was harvested into Hanks Buffered Salt Solution (HBSS) buffer. The cortices were taken and processed with trypsin (0.05% in HBSS), after which the cells were mechanically dissociated using a 21 g needle. The cell suspension was then passed through a […] filter, and the recovered cells plated on poly-D-lysine-treated 12-well plates. After five days of culture, the cells were used for assay.
For the assay, four experimental groups were set up. […] In the “22C11” group, cells were cultured in the presence of mAb 22C11 alone. […] The assay was allowed to proceed overnight (˜18 h), after which cell viability was determined by LDH assay as described in Example 25.

FPRL2 = target: T1, FPRL2 (Homo sapiens, UniProt P25089); test: Pertussis toxin sensitivity of signaling, adenylate cyclase assay in HEK293 cells; set-up: expressed in transfected cells; details: pre-treated 18 to 20 hrs with 50 ng/ml pertussis toxin; 5 μM forskolin; FIG. 7
T1 sequence (P25089 1-353): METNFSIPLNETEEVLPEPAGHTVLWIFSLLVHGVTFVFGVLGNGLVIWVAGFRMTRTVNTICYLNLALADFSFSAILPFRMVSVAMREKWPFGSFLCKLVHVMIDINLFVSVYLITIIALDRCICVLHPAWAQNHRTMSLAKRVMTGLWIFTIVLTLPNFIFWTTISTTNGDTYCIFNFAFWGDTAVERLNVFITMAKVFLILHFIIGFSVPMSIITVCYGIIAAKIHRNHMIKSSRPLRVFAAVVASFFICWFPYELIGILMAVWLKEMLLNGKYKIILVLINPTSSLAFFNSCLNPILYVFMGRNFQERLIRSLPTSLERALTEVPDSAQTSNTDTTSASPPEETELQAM
Procedure: The pertussis toxin sensitivity of Compound 1 signalling through human FPRL2 was determined similarly.
Samples were then assessed for cAMP levels as described in Example 4, supra.

FPR = target: T2, FPR (Homo sapiens, UniProt P21462); test: IP3 assay, HEK293 cells transiently transfected with FPR (negative control); set-up: Full-Length Cloning of Human GPCRs; expressed in transfected cells; host or cells: HEK293 cells, transient; details: not shown
T2 sequence (P21462 1-350): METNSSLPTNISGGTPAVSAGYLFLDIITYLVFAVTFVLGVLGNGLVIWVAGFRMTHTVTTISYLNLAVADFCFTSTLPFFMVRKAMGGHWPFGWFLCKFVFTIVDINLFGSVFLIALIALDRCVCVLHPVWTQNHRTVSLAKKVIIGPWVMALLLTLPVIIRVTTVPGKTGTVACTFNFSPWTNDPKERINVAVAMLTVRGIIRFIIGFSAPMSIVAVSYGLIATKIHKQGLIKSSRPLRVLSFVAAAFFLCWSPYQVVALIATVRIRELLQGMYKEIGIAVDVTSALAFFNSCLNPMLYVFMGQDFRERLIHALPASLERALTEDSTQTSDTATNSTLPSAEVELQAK

FPRL1 = target: T3, FPRL1 (Homo sapiens, UniProt P25090); test: Whole cell adenylate cyclase (cAMP) assay, stably transfected HEK293 cells; details: in the presence of 5 μM forskolin, FIG. 6
T3 sequence (P25090 1-351): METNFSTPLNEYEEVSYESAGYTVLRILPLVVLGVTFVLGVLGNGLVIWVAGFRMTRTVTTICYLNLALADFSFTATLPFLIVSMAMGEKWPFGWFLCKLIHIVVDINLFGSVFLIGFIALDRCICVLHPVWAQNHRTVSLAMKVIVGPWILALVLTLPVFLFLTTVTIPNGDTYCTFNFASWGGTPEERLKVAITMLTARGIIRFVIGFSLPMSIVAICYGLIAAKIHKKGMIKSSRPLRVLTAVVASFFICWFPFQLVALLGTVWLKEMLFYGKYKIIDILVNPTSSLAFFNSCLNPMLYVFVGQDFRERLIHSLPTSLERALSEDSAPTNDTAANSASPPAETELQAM
Excerpt: A Flash Plate™ Adenylyl Cyclase kit (New England Nuclear; Cat. No. SMP004A) designed for cell-based assays can be modified for use with crude plasma membranes. The Flash Plate wells can contain a scintillant coating which also contains a specific antibody recognizing cAMP. The cAMP generated in the wells can be quantitated by a direct competition for binding of radioactive cAMP tracer to the cAMP antibody. The following serves as a brief protocol for the measurement of changes in cAMP levels in whole cells that express the receptors.
Transfected cells are harvested approximately twenty four hours after transient transfection. Media is carefully aspirated off and discarded. 10 ml of PBS is gently added to each dish of cells followed by careful aspiration. 1 ml of Sigma cell dissociation buffer and 3 ml of PBS are added to each plate. Cells are pipetted off the plate and the cell suspension is collected into a 50 ml conical centrifuge tube. Cells are then centrifuged at room temperature at 1,100 rpm for 5 min. The cell pellet is carefully re-suspended into an appropriate volume of PBS (about 3 ml/plate). The cells are then counted using a hemocytometer and additional PBS is added to give the appropriate number of cells (with a final volume of about 50 μl/well). […]
In FIG. 6, agonist activity was determined through adenylate cyclase activity. […] Samples were then assessed for the level of intracellular cAMP as described in Example 4, supra.

| Compound | Protection from cell death induced by anti-APP mAb 22C11 [1] | Pertussis toxin sensitivity of the inhibition of cAMP through FPRL2 (FPRL2) | IP3 response in HEK293 cells transiently transfected with FPR (FPR) | Agonist activity at FPRL1, intracellular cAMP (FPRL1) | Agonist activity at FPRL1, intracellular cAMP (FPRL1; listed as Human) |
| --- | --- | --- | --- | --- | --- |
| CC(C)c1ccc2c(c1)CCC1C(C)(C(N)=O)CCCC21C (stereo not drawn) [Compound 1, 7-Isopropyl-1,4a-dimethyl-1,2,3,4,4a,9,10,10a-octahydro-phenanthrene-1-carboxylic acid amide] | protect primary mouse cortical neurons from cell death | pertussis sensitive | no IP3 response |  |  |
| CC[C@H](C)[C@H](NC(=O)[C@H](CCC(=O)O)NC(=O)[C@H](CO)NC(=O)[C@@H](NC(=O)[C@H](CC(C)C)NC(=O)[C@H](CC(C)C)NC(=O)[C@H](CC(C)C)NC(=O)[C@H](CC(C)C)NC(=O)[C@H](CS)NC(=O)[C@H](CO)NC(=O)[C@H](Cc1ccccc1)NC(=O)CNC(=O)[C@H](CCCNC(=N)N)NC(=O)[C@@H]1CCCN1C(=O)[C@H](C)NC(=O)[C@@H](N)CCSC)[C@@H](C)O)C(=O)N[C@@H](CC(=O)O)C(=O)N[C@@H](CC(C)C)C(=O)N1CCC[C@H]1C(=O)N[C@H](C(=O)N[C@@H](CCCCN)C(=O)N[C@@H](CCCNC(=N)N)C(=O)N[C@@H](CCCNC(=N)N)C(=O)N[C@@H](C)C(=O)O)C(C)C [Humanin] | protect primary mouse cortical neurons from cell death | pertussis sensitive | no IP3 response | agonists of both FPRL1 and FPRL2 | agonists of both FPRL2 and FPRL1 |
| MAPRGFSCLLLLTGEIDLPVKRRA [[Gly14]-Humanin] |  |  |  | agonists of both FPRL1 and FPRL2; also recorded: agonists of both FPRL2 and FPRL1 |  |
